Assay results reported in patent publication US20250236614A1, “BICYCLIC TETRAHYDROAZEPINE DERIVATIVES” (Hoffmann-La Roche Inc., priority 2022, published 2025).

How the values were obtained:
[1] = biological target: T1, hDGKzeta(1-928)-N-His (DGKZ) (Homo sapiens, UniProt Q13574); test: In vitro DGK inhibition assay (ADP-Glo, in house), DGK zeta; type: biochemical; settings: isomer A; 2 nM DGK ζ, 50 μM ATP, 125 μM DLG in liposomes, 1 hour reaction; read-out: DGKzeta ADP Glo assay IC50
T1 construct: hDGKzeta(1-928)-N-His; His (N)
T1 sequence (Q13574 whole entry): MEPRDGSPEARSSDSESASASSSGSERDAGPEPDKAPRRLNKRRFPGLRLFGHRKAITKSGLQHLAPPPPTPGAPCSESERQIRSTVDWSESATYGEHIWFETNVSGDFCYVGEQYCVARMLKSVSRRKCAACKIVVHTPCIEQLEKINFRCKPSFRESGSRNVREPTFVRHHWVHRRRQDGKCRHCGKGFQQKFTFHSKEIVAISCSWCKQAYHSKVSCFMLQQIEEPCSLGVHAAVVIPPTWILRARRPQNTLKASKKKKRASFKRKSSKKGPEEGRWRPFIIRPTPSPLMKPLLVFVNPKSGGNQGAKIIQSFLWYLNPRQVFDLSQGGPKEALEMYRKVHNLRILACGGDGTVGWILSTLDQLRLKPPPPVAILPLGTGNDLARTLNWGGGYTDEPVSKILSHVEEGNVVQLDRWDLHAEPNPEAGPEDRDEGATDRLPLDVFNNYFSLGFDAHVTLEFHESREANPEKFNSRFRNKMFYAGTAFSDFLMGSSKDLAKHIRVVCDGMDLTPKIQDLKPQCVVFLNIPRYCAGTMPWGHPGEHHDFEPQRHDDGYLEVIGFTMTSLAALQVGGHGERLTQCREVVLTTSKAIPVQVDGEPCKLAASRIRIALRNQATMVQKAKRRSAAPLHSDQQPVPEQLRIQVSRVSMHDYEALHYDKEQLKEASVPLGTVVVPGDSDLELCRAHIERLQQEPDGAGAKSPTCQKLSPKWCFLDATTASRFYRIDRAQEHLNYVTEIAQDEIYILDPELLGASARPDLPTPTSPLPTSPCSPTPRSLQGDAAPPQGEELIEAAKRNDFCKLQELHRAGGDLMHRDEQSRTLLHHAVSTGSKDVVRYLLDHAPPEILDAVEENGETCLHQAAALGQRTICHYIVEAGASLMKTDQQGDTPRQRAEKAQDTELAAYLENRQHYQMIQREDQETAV
Method: DGK α and ζ kinase use ATP to phosphorylate the substrate 1,2-dilauroyl-sn-glycerol (DLG, incorporated in the liposomes). ATP is converted to ADP as a result of this enzymatic reaction.
After the kinase reaction, an ATP-depletion reagent is added to terminate the kinase reaction and deplete any remaining ATP, leaving only ADP. Second, a detection reagent is added to simultaneously convert ADP to ATP and allow the newly synthesized ATP to be converted to light using a coupled luciferase/luciferin reaction.
Full length DGKA and Z were expressed in Sf21 insect cells by infecting the cells with the baculovirus stock at MOI of 2. Purification of both enzymes was performed as previously described by Takahashi et al., PeerJ, 2018 (Takahashi, D.; Sakane, F. Expression and purification of human diacylglycerolkinase alpha from baculovirus-infected insect cells for structural studies. PeerJ2018, 6, No. e5449).
A concentrated liposome solution was prepared in assay buffer without DTT and BSA: 2 mM of DLG in 21 mM of total liposome (2 mM DLG/8 mM PS/11 mM PC). The reaction mixtures contain the assay buffer with a final DLG concentration of 125 μM ATP concentrations of 25 μM (for DGKA assay) or 50 μM (for DGKZ assay). The reactions were started by addition of DGK α and ζ kinases at 4 nM and 2 nM final concentrations, respectively. After 1 hour reaction, the amount of ADP formed was detected with the ADP-Glo kinase assay (Promega) according to the manufacturer instructions. Compounds were added in 11I-points dose response, starting at 10 mM, 1:3 dilutions, with a final DMSO concentration of […]. The multidrop combi was used as a liquid handler and luminescence was read with 0.5 s by the envision reader (PE).

primary human T-cells = test: IL2 secretion measurements in CD3-stimulated T-cells; type: cell-based; settings: Homo sapiens, T-cell, isomer A; for EC50: CD3 antibody-stimulated T-cells, IL2 in supernatant after 24 hours, read-out: Tcell IL2 CD3 EC50; for Emax: CD3 condition, 24 hours, 20 μM reference compound A1 = 100%, DMSO neutral control, read-out: Emax IL2 (% activation)
Method: As readouts for T-cell activation, IL2 secretion after 24 hours and proliferation after 5 days was measured. Increases in IL2 secretion and proliferation upon compound treatment were assessed as the % of the maximum of reference compound A1. WO 2016/139181 discloses reference compound A1 as example 70. As a counter screen and to make sure that no unwanted TCR-independent activation was triggered, PBS conditions were run for all compounds.
Expanded primary human T-cells were thawed and cultured in RPMI 1640 (Gibco, #61870-010)+5% human serum (HS, Sigma, #H3667)+1 mM Sodium Pyruvate (Gibco, #11360-039)+50 μM 2-mercaptoethanol (Gibco, #31350-010) and lx Pen-Strep (Life Technologies, #15140122) medium at density of 2 Mio/ml for 3 hours in 5% CO2, 37° C. and 95% humidity. For coating of plates, […] or PBS++ with CD3 antibody (concentration depending on donor and determined by CD3 titrations) was added 100 μl/well to Poly-D Lysine coated 96-well plates. Plates were sealed and incubated at room temperature for 3 hours on a table-top rocking platform. After incubation, plates were washed once with PBS−− and filled with 40 μl/well culture medium only. Compounds were then added (see next section) to medium only plates. After 3 hours of culturing the T-cells, cells were filtered through a cell strainer (Miltenyi Biotech, #130-041-407), counted again and concentration was adjusted to 1.25 Mio/ml.
Cells were then seeded 80 μl/well to the 40 μl/well including dispensed compounds according to plate layout. By adding cells, compounds were further diluted 1:3, and resulting in 100k cells/120 μl/well. After 24 hours 40 μl of supernatant was collected carefully from the top while not disturbing the cells and transferred into a round bottom 96 well plate. Collected and frozen supernatant was used for detection of IL2 using the IL-2 Human ProQuantum Immunoassay Kit (Invitrogen) or using the Human IL-2 ELISA Kit (Thermo Fisher).
Compounds were added in a 5 or 6 pt dose response with the Tecan D300e Digital Dispenser, all conditions 3 times more concentrated than the end-concentration, since cells are added afterwards (80 μl cells to 40 μl prepared medium with treatment). The DR was starting at 20 μM or 10 μM final top concentration and a dilution factor of 3.333. The positive control was the reference compound A1 that was added in a dose response as well, additionally to 3 wells of only 20 μM representing the positive stimulator control. All wells were normalized with DMSO to a final concentration of 0.6% (0.2% end-concentration).
The immunoassay is done following the manufacturer's manual (Invitrogen, #A35603).
Additional information: For the immunoassay, MicroAmp™ EnduraPlate™ Optical 384-Well plates are used. Frozen supernatant is thawed and centrifuged for 5 minutes at 1000×g, both steps at 4° C. After centrifugation, required sample amount is taken from the top, and in a separate LightCycler V-bottom plate (working plate) diluted with assay dilution buffer, dilution factor depending on the PBS or CD3 condition but at least 1:3. IL-2 standard and blanks are prepared in the same V-bottom plate, standard with a range of […] (extended version). After preparation, […] of sample dilutions or standard/blanks are transferred to the optical 384-well plate (assay plate) and the 10 μl reaction protocol is being followed. For measurement, the QuantStudio 12K Flex system is used. Raw data is extracted and IL-2 concentrations are calculated with the Thermo Fisher online app (apps.thermofisher.com/apps/proquantum).
ELISA is done following the manufacturer's manual (Thermo Fisher Scientific, #88-7025-88).
Additional information: For the ELISA Nunc MaxiSorp 96 well plates are used. Frozen supernatant is thawed and centrifuged for 5 minutes at 1000×g, both steps at 4° C. After that, required sample amount is taken from the top, and in a separate V-bottom plate diluted with ELISA diluent, dilution factor depending on the PBS or CD3 condition. […]

IC50 [1] | EC50 (primary human T-cells) | SMILES | Emax (primary human T-cells)
8.93 µM | 0.821 µM | COC(F)(c1nnc(-c2cc3c(cc2F)C(F)(F)C[C@H](N)C(=O)N3Cc2ccc(OC(F)(F)F)cc2)o1)C(F)(F)F (single isomer, unassigned) [Example 4] | 91%
16.1 µM | 0.373 µM | CC(C)(c1nnc(-c2cc3c(cc2F)C(F)(F)C[C@@H](N)C(=O)N3Cc2ccc(-c3ccc(C(F)(F)F)cn3)cc2)o1)S(C)(=O)=O (single isomer, unassigned) [Example 8] | 69%
2.26 µM | > 10 µM | CCN1CC(c2nnc(-c3cc4c(cc3F)C(F)(F)C[C@@H](N)C(=O)N4Cc3ccc(OC(F)(F)F)cc3)o2)CC(F)(F)C1 (single isomer, unassigned) [Example 13] | 58%
17.9 µM | 0.982 µM | N[C@@H]1CC(F)(F)c2cc(F)c(-c3nnc(N4CCCC4)o3)cc2N(Cc2ccc(-c3noc(C(F)(F)F)n3)cc2)C1=O (single isomer, unassigned) [Example 14] | 239%
1.81 µM | 1.29 µM | N[C@@H]1CC(F)(F)c2cc(F)c(-c3nnc(N4CCC(F)(F)CC4)o3)cc2N(Cc2ccc(-c3noc(C(F)(F)F)n3)cc2)C1=O (single isomer, unassigned) [Example 15] | 152%
14.9 µM | 1.46 µM | CC(C)(c1nnc(-c2cc3c(cc2F)C(F)(F)C[C@@H](N)C(=O)N3Cc2ccc(-c3noc(C(F)(F)F)n3)cc2)o1)S(C)(=O)=O (single isomer, unassigned) [Example 16] | 183%
3.25 µM | 3.79 µM | N[C@@H]1CC(F)(F)c2cc(F)c(-c3nnc(N4CCOC5(CC5)C4)o3)cc2N(Cc2ccc(-c3noc(C(F)(F)F)n3)cc2)C1=O (single isomer, unassigned) [Example 17] | 107%
7.24 µM | > 2.73 µM | CC(C)(C#N)c1nnc(-c2cc3c(cc2F)C(F)(F)C[C@@H](N)C(=O)N3Cc2ccc(-c3ncc(C(F)(F)F)cc3F)cc2)o1 (single isomer, unassigned) [Example 19] | 63%
2.14 µM | 1.01 µM | CC(C)(C#N)c1nnc(-c2cc3c(cc2F)C(F)(F)C[C@@H](N)C(=O)N3Cc2ccc(-n3nnc(C(F)(F)F)n3)cc2)o1 (single isomer, unassigned) [Example 20] | 161%
11.8 µM | 7.74 µM | N[C@@H]1CC(F)(F)c2cc(F)c(-c3nnc(N4CCCC4)o3)cc2N(Cc2ccc(-n3cnc(C(F)(F)F)n3)cc2)C1=O (single isomer, unassigned) [Example 21] | 63%
17.8 µM | > 2.73 µM | N[C@@H]1CC(F)(F)c2cc(F)c(-c3nnc(N4CCC(F)(F)C4)o3)cc2N(Cc2ccc(-n3cnc(C(F)(F)F)n3)cc2)C1=O (single isomer, unassigned) [Example 22] | 31%
15.4 µM | > 2.73 µM | CC(C)(c1nnc(-c2cc3c(cc2F)C(F)(F)C[C@@H](N)C(=O)N3Cc2ccc(-n3cnc(C(F)(F)F)n3)cc2)o1)S(C)(=O)=O (single isomer, unassigned) [Example 23] | 42%
2.4 µM | 0.0768 µM | CC(C)(C#N)c1nnc(-c2cc3c(cc2F)C(F)(F)C[C@@H](N)C(=O)N3Cc2ccc(-c3ccc(OC(F)(F)F)cn3)cc2)o1 (single isomer, unassigned) [Example 24] | 140%
8.82 µM | 0.301 µM | CC(C)(c1nnc(-c2cc3c(cc2F)C(F)(F)C[C@@H](N)C(=O)N3Cc2ccc(-c3ccc(OC(F)(F)F)cn3)cc2)o1)S(C)(=O)=O (single isomer, unassigned) [Example 26] | 97%
1.82 µM | > 2.73 µM | CC(C)(C#N)c1nnc(-c2cc3c(cc2F)C(F)(F)C[C@@H](N)C(=O)N3Cc2ccc(-c3cc(C(F)(F)F)ccn3)cc2)o1 (single isomer, unassigned) [Example 27] | 181%
11.2 µM | 0.678 µM | CC(C)(C#N)c1nnc(-c2cc3c(cc2F)C(F)(F)C[C@@H](N)C(=O)N3Cc2ccc(-c3ccc(C(F)(F)F)cc3)nc2)o1 (single isomer, unassigned) [Example 28] | 73%
13.9 µM | > 10 µM | CC(C)(c1nnc(-c2cc3c(cc2F)C(F)(F)C[C@@H](N)C(=O)N3Cc2ccc(-n3cc(C(F)(F)F)cn3)cc2)o1)S(C)(=O)=O (single isomer, unassigned) [Example 29] | 48%
10.2 µM | 2.61 µM | CC(C)(C#N)c1nnc(-c2cc3c(cc2F)C(F)(F)C[C@@H](N)C(=O)N3Cc2ccc(-n3ccc(C(F)(F)F)n3)cc2)o1 (single isomer, unassigned) [Example 30] | 77%
33.8 µM | 0.6 µM | CC(C)(c1nnc(-c2cc3c(cc2F)C(F)(F)C[C@@H](N)C(=O)N3Cc2ccc(-c3ccc(C(F)(F)F)cc3)cc2)o1)S(C)(=O)=O (single isomer, unassigned) [Example 32] | 27%
11.1 µM | > 10 µM | COCCN1CC(c2nnc(-c3cc4c(cc3F)C(F)(F)C[C@@H](N)C(=O)N4Cc3ccc(-c4ccc(C(F)(F)F)cn4)cc3)o2)CC(F)(F)C1 (single isomer, unassigned) [Example 34] | 31%

SMILES | IC50 [1] | EC50 (primary human T-cells) | Emax (primary human T-cells)
COC(=O)N1CC2CC(c3nnc(-c4cc5c(cc4F)C(F)(F)C[C@@H](N)C(=O)N5Cc4ccc(-c5ccc(C(F)(F)F)cn5)cc4)o3)(C2)C1 (single isomer, unassigned) [Example 35] | > 19 µM | 0.216 µM | 94%
COC(=O)N1CC2CC(c3nnc(-c4cc5c(cc4F)C(F)(F)C[C@@H](N)C(=O)N5Cc4ccc(Cl)cc4)o3)(C2)C1 (single isomer, unassigned) [Example 36] | 5.92 µM | 0.856 µM | 53%
